The values below come from patent publication US6841530B2, “Semi-synthetic studies toward didemnin analogues” (The Board of Trustees of the University of Illinois, priority 1996, dated 2005).

In brackets after ≈: the same amount, converted by molar mass. Starred links: 1 amine or outer side, 2 acyl side, 3 side chain; linkers in the order of their positions; H or OH if unused. Positions of bridges follow the written chain, without caps; N, C: chain ends. Non-standard residues stand in square brackets, D forms with d. Residues, ends and D or L forms follow the SMILES beside them. X1 = CC[C@H](C)[C@@H](N[*:1])[C@@H](O)CC(=O)O[C@H](C(=O)[C@H](C)C(=O)[*:2])C(C)C; NMeY = CN[C@@H](Cc1ccc(O)cc1)C(=O)O; dNMeL = CN[C@H](CC(C)C)C(=O)O; pGlu = O=C1CC[C@@H](C(=O)O)N1; Lac = C[C@H](O)C(=O)O

The subject of one data set is P388 Murine Leukemia. Briefly: Life extension vs. P388 murine leukemia in mice. The data set is classed as in vivo.
For the next data set, the system named is CV-1. The data set is described as follows: Cytotoxicity score in the HSV/CV-1 antiviral assay. Particulars: scale 0 (least toxic) to 16 (toxic).
The next data set concerns HSV. Briefly: Antiviral activities of didemnins, HSV/CV-1. Set-up: key: +++ = complete inhibition; ++ = strong inhibition; + = moderate inhibition; − = no inhibition. Format: cell-based.
Data set [1] is described as follows: Cytotoxicity of didemnins (Table II). The data set is classed as cell-based. Conditions: for IC50: cytotoxicity.

Consider `CC[C@H](C)[C@H]1NC(=O)[C@@H](NC(=O)[C@@H](CC(C)C)N(C)C(=O)[C@@H]2CCCN2C(=O)[C@H](C)OC(=O)[C@@H](N)CCC(N)=O)[C@@H](C)OC(=O)[C@H](Cc2ccc(OC)cc2)N(C)C(=O)[C@@H]2CCCN2C(=O)[C@H](CC(C)C)NC(=O)[C@@H](C)C(=O)[C@H](C(C)C)OC(=O)C[C@@H]1O` [Gln-Didemnin B, Glutaminyl-didemnin B] (H-Q[Lac]P[dNMeL]T[X1]LP[NMeY](Me); ester 5-C), for which the “T/C (% of Control, Life Extension)” value with P388 Murine Leukemia (Dose 0.025 mg/kg) is listed as 152 % of Control; in the data set on P388 Murine Leukemia (Dose 0.05 mg/kg) it was 171 % of Control; in the data set on P388 Murine Leukemia (Dose 1 mg/kg) it was 185 % of Control. The Cytotoxocity is 0 with CV-1 (10 ng/mL), 16 in the data set with CV-1 (20 ng/mL), 16 with CV-1 (50 ng/mL) and 16 in the data set with CV-1 (100 ng/mL). In the data set on HSV (10 ng/mL), the Activity entry is given as “+++”. Further, the “Inhibition (%)” value turned out to be 94% in data set [1] (Dose 0.25 ng/mL), 100% in data set [1] (Dose 2.5 ng/mL), 100% in data set [1] (Dose 25 ng/mL) and 100% in data set [1] (Dose 250 ng/mL). The IC50 in data set [1] turned out to be 0.1 ng/mL (≈ 0.0806 nM).
For the compound `CC[C@H](C)[C@H]1NC(=O)[C@@H](NC(=O)[C@@H](CC(C)C)N(C)C(=O)[C@@H]2CCCN2C(=O)[C@H](C)OC(=O)[C@@H]2CCC(=O)N2)[C@@H](C)OC(=O)[C@H](Cc2ccc(OC)cc2)N(C)C(=O)[C@@H]2CCCN2C(=O)[C@H](CC(C)C)NC(=O)[C@@H](C)C(=O)[C@H](C(C)C)OC(=O)C[C@@H]1O` [pGlu-Didemnin B (39), L-Pyroglutaminyl-didemnin B] ([pGlu][Lac]P[dNMeL]T[X1]LP[NMeY](Me); ester 5-C), the Cytotoxocity with CV-1 (10 ng/mL) is on record as 0; with CV-1 (20 ng/mL), 0; in the data set on CV-1 (50 ng/mL) it was 16; with CV-1 (100 ng/mL), 16. Also, the Activity entry is listed as “+” in the data set with HSV (10 ng/mL) and “+++” with HSV (20 ng/mL). Besides, the “Inhibition (%)” value in data set [1] (Dose 0.25 ng/mL) came to 94%; in data set [1] (Dose 2.5 ng/mL), 100%; in data set [1] (Dose 25 ng/mL) it was 100%; in data set [1] (Dose 250 ng/mL), 100%. This compound also yielded an IC50 in data set [1] of 0.1 ng/mL (≈ 0.0817 nM).

In general, IC50 refers to the midpoint of a concentration-inhibition curve.
